The text below walks through data of patent US5985826A, “Methods of using hepatic-directed compounds in pretargeting strategies” (NeoRx Corporation, priority 1997, dated 1999).

For data set [1], the system named is I-125 NR-LU-10-streptavidin conjugate. Nature of the data set: In vivo pretargeting-format clearance of I-125 NR-LU-10-streptavidin conjugate from circulation. Also on record: species or system mice (BALB/c). The method, then:
In a third set of experiments conducted in vivo in the pretargeting format (e.g., administration of radiolabeled MAb-streptavidin conjugate followed by administration of clearing agent), the (galactosyl)8 -LC-biotin conjugate was also compared to galactose-HSA-biotin prepared as described above. This comparison was conducted in a Balb/c mouse model and was for the ability to clear an I-125 labeled monoclonal antibody-streptavidin conjugate (1-125 LU-10-streptavidin) from circulation as a function of time. […] Subsequent experiments have further shown that hepatic-directed compounds containing 16 galactose residues provide for even better clearance than those containing 8 galactose residues.
Having shown that precomplexed material could clear rapidly and efficiently from the blood, experiments were conducted to measure the effectiveness of various doses of-the 16 galactose-biotin construct to form rapidly clearing complexes in vivo. Mice received 400 micrograms of I-125 NR-LU-10streptavidin conjugate intravenously, and approximately 22 hours later received the 16 galactose-biotin construct at doses of 100 50, or 10:1 (456, 228 and 45 micrograms, respectively) molar excess to circulating monoclonal antibody-streptavidin conjugate. […] The larger doses may be sufficiently high to achieve competition between complexed and non-complexed 16-galactose-biotin for liver receptors, thereby precluding all but a small initial fraction of the complexed MAb-streptavidin conjugate from clearing via the liver. Following the plateau period, clearing of the conjugate remained slow and was eventually less complete than that achieve with the lower dose (approximately 10% of the conjugate remained in circulation at the higher doses, in comparison to 2% for the lower dose). […] If the 16 galactose-biotin construct is unstable, sufficient biotin may be released at higher doses to that a significant portion of circulating conjugate became blocked thereby and, consequently, was not cleared via hepatic-mediated uptake.

Data set [2] is described as follows: Non-target organ uptake of Y-90-DOTA-biotin radioactivity in tumored nude mice. Type of data set: in vivo. The note with it: vs historical controls. How it is done:
(§1) Having shown that effective clearing could be achieved with the appropriate does of 16 galactose-biotin construct, studies were undertaken in tumored nude mice to evaluate the potential blockade of tumor-associated conjugate by the small 16 galactose-biotin. Mice bearing either SW-1222 colon tumor xenografts or SHT-1 small cell lung cancer (SCLC) tumor xenografts were pretargeted with NR-LU-10-streptavidin conjugate and, 22 hours later, received 46 micrograms of 16 galactose-biotin. After 2 hours, Y-90-DOTA-biotin prepared as described above was administered, and its uptake and retention in tumor and non-target tissues was evaluated by sacrifice and tissue counting for radioactivity 2 hours post-administration.
(§2) The historical controls were conducted with a 3 hour time period between clearing agent and radioactivity administration.

The test system of data set [3] is MAb-streptavidin conjugate. The experiment in a line: Serum/blood clearance of MAb-streptavidin conjugate with galactose cluster-biotin conjugates (precomplexed ex vivo, or given after the conjugate). It counts as in vivo, mouse. The note with it: precomplexed at 20-fold molar excess; 120 or 12 micrograms i.v.; vs antibody conjugate control; BALB/c female. How it is done: Some or all of these compounds were assayed for their clearance directing activity in two sets of experiments. The first set of experiments involved ex vivo preparation of a precomplexed monoclonal antibody-streptavidin-biotin-galactose cluster conjugate labeled with I-125, intravenous administration of the conjugate in a mouse model, and measuring serum levels of the conjugate over time. The second set of experiments involved intravenous administration of MAb-streptavidin conjugate followed by administration of biotin-galactose cluster conjugate.
NR-LU-10 antibody (MW 150 kD) was conjugated to streptavidin (MW 66 kD) (as described in Example II above), and radiolabeled with ^125 I/PIP-NHS as described below. The antibody component of the conjugate was radioiodinated using p-aryltin phenylate NHS ester (PIP-NHS) and ^125 I sodium iodide. […]
Experiments were designed and executed to evaluate a 16 galactose cluster-biotin construct without the stabilizing tertiary amine structure of the nitrogen of the amide closest to the biotin, the preparation of such a stabilized construct being described above in Example V. BALB/c female mice (20-25 g) were injected i.v. with 120 micrograms of NR-LU-10-streptavidin conjugate radiolabeled with I-125, and blood was serially collected from n=3 mice. The clearance of the conjugate from the blood was measured of these control mice. […]

Data set [4] deals with SW-1222 colon tumor xenografts. The experiment in a line: Tumor targeting of Y-90-DOTA-biotin after NR-LU-10-streptavidin and 16 galactose-biotin, SW-1222 colon xenograft. Type of data set: in vivo, nude mice. The method, then:
as §1, §2

For data set [5], the system named is SHT-1 small cell lung cancer (SCLC) tumor xenografts. The experiment in a line: Tumor targeting of Y-90-DOTA-biotin after NR-LU-10-streptavidin and 16 galactose-biotin, SHT-1 SCLC xenograft. Type of data set: in vivo, nude mice. The method, then:
as §1, §2

In data set [6] the test system is MAb-streptavidin. The experiment in a line: Relative stoichiometry of In-111 DOTA-biotin to I-125 MAb-streptavidin at the tumor target site. Type of data set: in vivo. The conditions noted are these: I-125 MAb-streptavidin and In-111 DOTA-biotin. An excerpt: Experiments were. also carried out using I-125 labeled MAb-streptavidin conjugate and In-111 labeled DOTA-biotin to assess the relative stoichiometry of those materials at the tumor target site using 16 galactose-biotin as a clearing agent. […] When a similar protocol was employed with the 16 galactose-biotin construct, the ratio of DOTA-biotin to MAb-streptavidin was only 2.65. […] Experiments to assess the nature of this blockade are underway.

Setting [7] is: 46 micrograms, Y-90-DOTA-biotin, vs historical controls with (galactose)35-HSA-(biotin)2.
Setting [8] is: vs (galactose)35-HSA-(biotin)2 historical controls.

`CN(CCCCSC1O[C@H](CO)[C@H](O)[C@H](O)[C@H]1O)C(=O)CCCCCN(CCCCCC(=O)N(C)CCCCSC1O[C@H](CO)[C@H](O)[C@H](O)[C@H]1O)C(=O)CCCCCN(CCCCCC(=O)N(CCCCCC(=O)N(C)CCCCSC1O[C@H](CO)[C@H](O)[C@H](O)[C@H]1O)CCCCCC(=O)N(C)CCCCSC1O[C@H](CO)[C@H](O)[C@H](O)[C@H]1O)C(=O)CCCCCN(CCCCCC(=O)N(CCCCCC(=O)N(CCCCCC(=O)N(C)CCCCSC1O[C@H](CO)[C@H](O)[C@H](O)[C@H]1O)CCCCCC(=O)N(C)CCCCSC1O[C@H](CO)[C@H](O)[C@H](O)[C@H]1O)CCCCCC(=O)N(CCCCCC(=O)N(C)CCCCSC1O[C@H](CO)[C@H](O)[C@H](O)[C@H]1O)CCCCCC(=O)N(C)CCCCSC1O[C@H](CO)[C@H](O)[C@H](O)[C@H]1O)C(=O)CCCCCN(CCCCCC(=O)N(CCCCCC(=O)N(CCCCCC(=O)N(CCCCCC(=O)N(C)CCCCSC1O[C@H](CO)[C@H](O)[C@H](O)[C@H]1O)CCCCCC(=O)N(C)CCCCSC1O[C@H](CO)[C@H](O)[C@H](O)[C@H]1O)CCCCCC(=O)N(CCCCCC(=O)N(C)CCCCSC1O[C@H](CO)[C@H](O)[C@H](O)[C@H]1O)CCCCCC(=O)N(C)CCCCSC1O[C@H](CO)[C@H](O)[C@H](O)[C@H]1O)CCCCCC(=O)N(CCCCCC(=O)N(CCCCCC(=O)N(C)CCCCSC1O[C@H](CO)[C@H](O)[C@H](O)[C@H]1O)CCCCCC(=O)N(C)CCCCSC1O[C@H](CO)[C@H](O)[C@H](O)[C@H]1O)CCCCCC(=O)N(CCCCCC(=O)N(C)CCCCSC1O[C@H](CO)[C@H](O)[C@H](O)[C@H]1O)CCCCCC(=O)N(C)CCCCSC1O[C@H](CO)[C@H](O)[C@H](O)[C@H]1O)C(=O)CCCCCNC(=O)CCCC[C@@H]1SC[C@@H]2NC(=O)N[C@@H]21` (stereo partly drawn) [16 galactose-biotin]: the “Efficiency at removing circulating conjugate, lower and higher doses” value in data set [1] (12, 23 and 228 microgram, vs 46 microgram) is “less efficient at removing circulating conjugate”. Also, the “Rebound effect, lower doses” value in data set [1] (12 and 23 microgram) is listed as “significant rebound effect”. The “Clearing effectiveness at 46 micrograms vs (galactose)35-HSA-(biotin)2” value in data set [1] (46 microgram, vs previously optimized dose) is “more effective than the previously optimized dose of (galactose)35 -HSA-(biotin)2”. Moreover, in data set [1] (100, 50 or 10:1 molar excess (456, 228 and 45 micrograms), about 22 h after 400 micrograms conjugate), the “Effectiveness at clearing conjugate, each dose” value is “effective at clearing conjugate”. This compound displayed an Optimal clearing dose in data set [1] (decreasing dose comparison) of 46 microgram. Also, the “Conjugate remaining in circulation, higher doses” value in data set [1] (higher doses (456 and 228 micrograms; 100:1, 50:1)) was “approximately 10%”. Besides, the “Duration of plateau in conjugate clearance” value in data set [1] (larger doses (456, 228 micrograms), after administration of 16 galactose-biotin) is “about 1 hour”. In addition, the “Conjugate remaining in circulation, lower dose” value in data set [1] (lower dose (45 micrograms; 10:1)) is given as 2%. The “Clearing of MAb-streptavidin from the circulation, summary” value in data set [1] (vascular and extravascular spaces) is “effective construct for clearing MAb-streptavidin from the circulation”. In data set [2] (2 hours between clearing agent and radioactivity), the Liver uptake result is given as “slightly higher levels”. Further, the “Non-target organ uptake except liver” value in data set [2] (Y-90 radioactivity) is “comparable in all tissues except liver”. In addition, the “Blood clearance of precomplexed conjugate” value in data set [3] is recorded as “extremely rapid clearance from the blood”. In addition, the “Tumor targeting, high antigen-expressing colon xenograft” value in data set [4] (setting [7]) was “slightly lower”. For the same compound, the “Tumor uptake of radioactivity, SW-1222, overall assessment” value in data set [4] (setting [8]) is “roughly equivalent”. In data set [5] (setting [7]), the “Tumor targeting, low antigen-expressing SCLC xenograft” value was “slightly higher”. The “Tumor uptake of radioactivity, SHT-1, overall assessment” value in data set [5] (setting [8]) is listed as “roughly equivalent”. Also, the “Ratio of DOTA-biotin to MAb-streptavidin at the tumor” value in data set [6] stood at 2.65.

Take `CN(CCCCSC1O[C@H](CO)[C@H](O)[C@H](O)[C@H]1O)C(=O)CCCCCN(CCCCCC(=O)N(C)CCCCSC1O[C@H](CO)[C@H](O)[C@H](O)[C@H]1O)C(=O)CCCCCN(CCCCCC(=O)N(CCCCCC(=O)N(C)CCCCSC1O[C@H](CO)[C@H](O)[C@H](O)[C@H]1O)CCCCCC(=O)N(C)CCCCSC1O[C@H](CO)[C@H](O)[C@H](O)[C@H]1O)C(=O)CCCCCN(CCCCCC(=O)N(CCCCCC(=O)N(CCCCCC(=O)N(C)CCCCSC1O[C@H](CO)[C@H](O)[C@H](O)[C@H]1O)CCCCCC(=O)N(C)CCCCSC1O[C@H](CO)[C@H](O)[C@H](O)[C@H]1O)CCCCCC(=O)N(CCCCCC(=O)N(C)CCCCSC1O[C@H](CO)[C@H](O)[C@H](O)[C@H]1O)CCCCCC(=O)N(C)CCCCSC1O[C@H](CO)[C@H](O)[C@H](O)[C@H]1O)C(=O)CCCCCNC(=O)CCCC[C@@H]1SC[C@@H]2NC(=O)N[C@@H]21` (stereo partly drawn) [(galactosyl)8 -LC-biotin]: the “Ability to clear I-125 LU-10-streptavidin from circulation” value in data set [1] (Balb/c mouse, vs galactosylated-HSA-biotin) is reported as “comparable to galactosylated-HSA-biotin”.
